From ChEMBL document CHEMBL1944551, “An integrated computational workflow for efficient and quantitative modeling of renin inhibitors” (Bioorg Med Chem, 2012) come the findings set out here.

In the first data set the target is T1, Renin (Homo sapiens, UniProt P00797).
T1 sequence (P00797 whole entry): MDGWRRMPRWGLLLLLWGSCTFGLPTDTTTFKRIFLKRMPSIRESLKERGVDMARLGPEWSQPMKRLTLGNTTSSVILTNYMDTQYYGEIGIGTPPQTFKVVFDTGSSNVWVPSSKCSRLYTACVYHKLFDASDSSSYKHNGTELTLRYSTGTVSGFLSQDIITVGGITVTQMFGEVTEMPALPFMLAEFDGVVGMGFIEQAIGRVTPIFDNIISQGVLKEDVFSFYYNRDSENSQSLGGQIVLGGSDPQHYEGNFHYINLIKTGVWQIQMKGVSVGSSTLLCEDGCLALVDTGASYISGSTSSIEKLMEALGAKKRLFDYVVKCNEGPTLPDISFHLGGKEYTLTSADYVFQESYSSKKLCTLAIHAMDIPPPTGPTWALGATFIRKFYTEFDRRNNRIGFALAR
Test: not given
Conditions: not given
Compound `O=C(c1c(Oc2ccccc2)n(-c2ccccc2)c2cc(Cl)ccc12)N1CCNCC1` had a half-inhibitory concentration (IC50) of 537 nM. On the same count and under the same terms, as for `Cc1c(F)cccc1Cc1cc2c(cc1O)c(C(=O)N1CCNCC1)c(Cc1cccc(F)c1C)n2-c1ccccc1`, the figure is 427 nM; as for `Cc1ccc(F)cc1Oc1c(C(=O)N2CCNCC2)c2ccc(O)cc2n1-c1ccc(F)cc1`, 15.8 nM. As for `Cc1ccc(F)cc1Oc1c(C(=O)N2CCNCC2)c2ccccc2n1[C@H]1C=CCCC1`, the 50% inhibitory concentration (IC50) was 6.46 nM.

`Cc1cc(Cl)c(OCCOc2ccc(N3C(=O)CNC[C@@H]3C(=O)N(Cc3cccc(C)c3C)C3CC3)cc2)cc1C` had an IC50 of 7.76 nM. Same read-out and setting: as for `Cc1cccc(CN(C(=O)[C@H]2CNCC(=O)N2c2ccc(OCCOc3c(Cl)cc(F)cc3Cl)cc2)C2CC2)c1C`, the figure is 10.2 nM.

Test system in the next data set: not listed separately
In words: physchem. The following applies: octanol/buffer.
For `CN(CCCc1ccccc1)C(=O)[C@H]1CNCC(=O)N1c1ccc(CCCOc2cccc(Cl)c2)cc1`, the lipophilicity (logP) worked out at 5.19. On the same count and under the same terms, with `CN(CCCc1ccccc1)C(=O)[C@H]1CNCC(=O)N1c1ccc(CCCOc2c(F)ccc(F)c2F)cc1` the figure was 5.01; with `Cc1cc(Cl)c(OCCOc2ccc(N3C(=O)CNC[C@@H]3C(=O)N(Cc3ccc(Cl)cc3)C3CC3)cc2)c(Cl)c1`, 5.83; with `Cc1cc(Cl)c(OCCOc2ccc(N3C(=O)CNC[C@@H]3C(=O)N(Cc3ccc(Cl)cc3)C3CC3)cn2)c(Cl)c1`, 5.01. The same measure, in the same setting: with `O=C(OCc1ccc(N2C(=O)CNC[C@@H]2C(=O)N(Cc2ccc(Cl)cc2)C2CC2)cc1)c1ccccc1` the figure was 4.73. The same measure, in the same setting: as for `O=C([C@H]1CNCC(=O)N1c1ccc(OCCCOCc2ccccc2)cc1)N(Cc1ccc(Cl)cc1)C1CC1`, the figure is 5.11; as for `COc1ccccc1COCCCOc1ccc(N2C(=O)CNC[C@@H]2C(=O)N(Cc2ccc(Cl)cc2)C2CC2)cc1`, 5.06; as for `COc1ccccc1COCCCOc1ncc(N2C(=O)CNC[C@@H]2C(=O)N(Cc2ccc(Cl)cc2)C2CC2)cn1`, 3.05. With `O=C([C@H]1CNCC(=O)N1c1ccc(CCCOc2cccc(Cl)c2)cc1)N(Cc1ccc(Cl)cc1)C1CC1`, the logP was 5.91. `O=C([C@H]1CNCC(=O)N1c1ccc(CCCOc2c(F)ccc(F)c2F)cc1)N(Cc1ccc(Cl)cc1)C1CC1` came in with a logP of 5.73. The logP values of the last two compounds are within 0.2 log units of each other. On the same count and under the same terms, with `COc1c(CN(C(=O)[C@H]2CNCC(=O)N2c2ccc(OCCOc3c(Cl)cc(C)cc3Cl)cc2)C2CC2)ccnc1C` the figure was 4.22. The compound `COc1c(CN(C(=O)[C@H]2CNCC(=O)N2c2ccc(OCCOc3c(Cl)cc(C)cc3Cl)nc2)C2CC2)ccnc1C` came in with a lipophilicity (logP) of 3.39. On the same count and under the same terms, as for `COc1c(CN(C(=O)[C@H]2CNCC(=O)N2c2ccc(COC(=O)c3ccccc3)cc2)C2CC2)ccnc1C`, the figure is 3.12. Compound `COc1c(CN(C(=O)[C@H]2CNCC(=O)N2c2ccc(OCCCOCc3ccccc3)cc2)C2CC2)ccnc1C` showed a logP of 3.49. Same read-out and setting: with `COc1ccccc1COCCCOc1ccc(N2C(=O)CNC[C@@H]2C(=O)N(Cc2ccnc(C)c2OC)C2CC2)cc1` the figure was 3.45. On the same count and under the same terms, as for `COc1ccccc1COCCCOc1ncc(N2C(=O)CNC[C@@H]2C(=O)N(Cc2ccnc(C)c2OC)C2CC2)cn1`, the figure is 1.44; as for `COc1c(CN(C(=O)[C@H]2CNCC(=O)N2c2ccc(CCCOc3cccc(Cl)c3)cc2)C2CC2)ccnc1C`, 4.29. On the same count and under the same terms, as for `COc1c(CN(C(=O)[C@H]2CNCC(=O)N2c2ccc(CCCOc3c(F)ccc(F)c3F)cc2)C2CC2)ccnc1C`, the figure is 4.12.

Compound `Cc1cc(Cl)c(OCCOc2ccc(N3C(=O)CNC[C@@H]3C(=O)N(Cc3ccccc3Cl)C3CC3)cc2)c(Cl)c1` showed a logP of 5.83. On the same count and under the same terms, as for `Cc1cc(Cl)c(OCCOc2ccc(N3C(=O)CNC[C@@H]3C(=O)N(Cc3ccccc3Cl)C3CC3)cn2)c(Cl)c1`, the figure is 5; as for `O=C(OCc1ccc(N2C(=O)CNC[C@@H]2C(=O)N(Cc2ccccc2Cl)C2CC2)cc1)c1ccccc1`, 4.73.

The compound `O=C([C@H]1CNCC(=O)N1c1ccc(OCCCOCc2ccccc2)cc1)N(Cc1ccccc1Cl)C1CC1` returned a lipophilicity (logP) of 5.11. The same measure, in the same setting: as for `COc1ccccc1COCCCOc1ccc(N2C(=O)CNC[C@@H]2C(=O)N(Cc2ccccc2Cl)C2CC2)cc1`, the figure is 5.06; as for `COc1ccccc1COCCCOc1ncc(N2C(=O)CNC[C@@H]2C(=O)N(Cc2ccccc2Cl)C2CC2)cn1`, 3.05; as for `O=C([C@H]1CNCC(=O)N1c1ccc(CCCOc2cccc(Cl)c2)cc1)N(Cc1ccccc1Cl)C1CC1`, 5.9. Same read-out and setting: with `O=C([C@H]1CNCC(=O)N1c1ccc(CCCOc2c(F)ccc(F)c2F)cc1)N(Cc1ccccc1Cl)C1CC1` the figure was 5.73. Regarding `O=C(c1c(Oc2ccccc2)n(-c2ccccc2)c2cc(Cl)ccc12)N1CCNCC1`, the logP turned out to be 5.71. On the same count and under the same terms, with `Cc1c(F)cccc1Cc1cc2c(cc1O)c(C(=O)N1CCNCC1)c(Cc1cccc(F)c1C)n2-c1ccccc1` the figure was 7.78.

In the case of `Cc1ccc(F)cc1Oc1c(C(=O)N2CCNCC2)c2ccc(O)cc2n1-c1ccc(F)cc1`, the logP stood at 5.45. `Cc1ccc(F)cc1Oc1c(C(=O)N2CCNCC2)c2ccccc2n1[C@H]1C=CCCC1` yielded a lipophilicity (logP) of 5.3. As for `Cc1cc(Cl)c(OCCOc2ccc(N3C(=O)CNC[C@@H]3C(=O)N(Cc3cccc(C)c3C)C3CC3)cc2)cc1C`, the logP was found to be 5.54. `Cc1cccc(CN(C(=O)[C@H]2CNCC(=O)N2c2ccc(OCCOc3c(Cl)cc(F)cc3Cl)cc2)C2CC2)c1C` showed a logP of 5.69.

The data set is the same for the next values; noted with them: octanol/water.
`COc1ccccc1COCCCOc1ncc(N2C(=O)CNC[C@@H]2C(=O)NCc2ccccc2Cl)cn1` displayed a log partition coefficient (logP) of 2.2.

The term IC50 denotes the concentration that gives 50% inhibition. For orientation: logP means a log measure of how a compound divides between an organic and an aqueous phase. Low values mean a more hydrophilic compound, high ones a more lipophilic compound.
